Data on 37 molecules can be found in US7435837B2, “Dihydrobenzofuranyl alkanamine derivatives and methods for using same” (Wyeth, priority 2003, dated 2008).

Usually Ki stands for a dissociation constant, usually derived from enzyme kinetics or from competition with a known ligand. As usually defined, the Kd is the free concentration of one partner at which half of the binding sites on the other are occupied at equilibrium, for simple one-to-one binding.

The target of the first assay is T1, human 5-hydroxytryptamine-2C (h5-HT2C) receptor (Homo sapiens, UniProt P28335).
T1 construct: expressed in transfected cells; host or cells: CHO (Chinese Hamster Ovary) cells; membranes
T1 sequence (P28335 33-458): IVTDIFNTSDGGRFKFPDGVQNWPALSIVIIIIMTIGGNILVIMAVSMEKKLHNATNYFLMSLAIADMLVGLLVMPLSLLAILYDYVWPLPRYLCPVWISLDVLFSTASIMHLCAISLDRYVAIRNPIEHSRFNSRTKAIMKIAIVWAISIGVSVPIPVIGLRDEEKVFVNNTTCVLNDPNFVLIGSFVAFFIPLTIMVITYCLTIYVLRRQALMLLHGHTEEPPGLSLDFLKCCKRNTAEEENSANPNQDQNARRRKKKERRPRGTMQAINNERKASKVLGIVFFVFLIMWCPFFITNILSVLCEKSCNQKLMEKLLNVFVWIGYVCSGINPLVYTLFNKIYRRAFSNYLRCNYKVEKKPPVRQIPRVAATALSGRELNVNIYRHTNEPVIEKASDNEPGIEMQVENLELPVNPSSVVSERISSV
Description: [125I]DOI binding to membranes of CHO cells expressing the human 5-HT2C receptor. The following applies: [125I]DOI radioligand, CHO cell membranes, room temperature 60 min; read-out: 5-HT2C Affinity Ki.
Take `Cc1cccc(-c2cc(C(F)(F)F)cc3c2OC(CN)C3)c1` (racemic) [Example 318, (±)-{[5-(trifluoromethyl)-7-(3-methylphenyl)-2,3-dihydro-1-benzofuran-2-yl]methyl}amine]: the inhibition constant Ki is 98 nM.
Consider `NCC1Cc2cccc(Nc3cccc(C(F)(F)F)c3)c2O1` (racemic) [Example 184, (±)-N-2-(aminomethyl)-N-[3-(trifluoromethyl)phenyl]-2,3-dihydro-1-benzofuran-7-amine], for which the Ki was found to be 185 nM.
As to `NCC1Cc2cccc(-c3cccc(C(F)(F)F)c3)c2O1` (racemic) [Example 69, (±)-1-{7-[3-(trifluoromethyl)phenyl]-2,3-dihydro-1-benzofuran-2-yl}methanamine], the Ki is 96 nM.
For `CNCC1Cc2cc(C(F)(F)F)cc(-c3cc(F)ccc3F)c2O1` (racemic) [Example 523, (±)-N-methyl-1-[7-(2,5-difluorophenyl)-5-(trifluoromethyl)-2,3-dihydro-1-benzofuran-2-yl]methanamine], the Ki was 61 nM.
Regarding `Cc1ccc(Nc2cccc3c2OC(CN)C3)cc1` (racemic) [Example 174, (±)-N-[2-(aminomethyl)-2,3-dihydro-1-benzofuran-7-yl]-N-(4-methylphenyl)amine], the Ki came to 203 nM.
In the case of `Cc1cccc(-c2cccc3c2OC(CN)C3)c1` (racemic) [Example 41, (±)-1-[7-(3-methylphenyl)-2,3-dihydro-1-benzofuran-2-yl]methanamine], the Ki came out at 25 nM.
In the case of `CNCC1Cc2cc(-c3cccc(C(F)(F)F)c3)cc(F)c2O1` (racemic) [Example 536, (±)-{7-fluoro-5-[3-(trifluoromethyl)phenyl]-2,3-dihydro-1-benzofuran-2-yl}methyl)methylamine], the Ki stood at 1120 nM.
Same read-out and setting: the result for `NCC1Cc2cccc(Cc3ccccc3)c2O1` (racemic) [Example 15, (±)-1-(7-benzyl-2,3-dihydro-1-benzofuran-2-yl)methanamine] reads 222 nM; that for `CNCC1Cc2cc(C(F)(F)F)cc(-c3ccc(F)c(Cl)c3)c2O1` (racemic) [Example 525, (±)-{[7-(3-chloro-4-fluorophenyl)-5-(trifluoromethyl)-2,3-dihydro-1-benzofuran-2-yl]methyl}methylamine], 559 nM.
For the molecule `NCC1Cc2cc(-c3ccccc3)cc(-c3ccc(F)cc3F)c2O1` (racemic) [Example 354, (±)-{[7-(2,4-difluorophenyl)-5-phenyl-2,3-dihydro-1-benzofuran-2-yl]methyl}amine], the Ki amounted to 610 nM.
Still for that read-out and setting: the result for `COc1cccc(-c2cccc3c2OC(CN)C3)c1` (single isomer, unassigned; (-)) [Example 134, (−)-1-[7-(3-methoxyphenyl)-2,3-dihydro-1-benzofuran-2-yl]methanamine] reads 483 nM; that for `CNCC1Cc2cc(-c3ccc(OC)cc3)cc(F)c2O1` (racemic) [Example 542, (±)-{7-fluoro-5-[4-methoxyphenyl]-2,3-dihydro-1-benzofuran-2-yl}methyl)methylamine], 372 nM; that for `CC1(CN)Cc2cc(Cl)cc(-c3cccs3)c2O1` (racemic) [Example 114, (±)-(5-chloro-2-methyl-7-thien-2-yl-2,3-dihydro-1-benzofuran-2-yl)methylamine], 471 nM.
On to `Cc1ccc(Nc2cccc3c2OC(CN)C3)c(C)c1` (racemic) [Example 180, (±)-N-[2-(aminomethyl)-2,3-dihydro-1-benzofuran-7-yl]-N-(2,4-dimethylphenyl)amine], for which the Ki is 290 nM.
On to `COc1cccc(-c2cc(F)cc3c2OC(CN)C3)c1` (racemic) [Example 197, (±)-{[5-fluoro-7-(3-methoxyphenyl)-2,3-dihydro-1-benzofuran-2-yl]methyl}amine], for which the Ki was 63 nM.
As to `NCC1Cc2cccc(-c3ccc(F)c(Cl)c3)c2O1` (racemic) [Example 34, (±)-1-[7-(3-chloro-4-fluorophenyl)-2,3-dihydro-1-benzofuran-2-yl]methanamine], the Ki amounted to 37 nM.
On to `CNCC1Cc2cc(-c3ccccc3)cc(-c3ccccc3C)c2O1` (racemic) [Example 511, (±)-{[7-(2-methylphenyl)-5-phenyl-2,3-dihydro-1-benzofuran-2-yl]methyl}methylamine], for which the Ki worked out at 248 nM.
For the molecule `CNCC1Cc2cc(C(F)(F)F)cc(-c3cccc(Cl)c3Cl)c2O1` (racemic) [Example 524, (±)-N-methyl-1-[7-(2,3-dichlorophenyl)-5-(trifluoromethyl)-2,3-dihydro-1-benzofuran-2-yl]methanamine], the Ki is 136 nM.
Take `NCC1Cc2cc(Cl)cc(-c3ccsc3)c2O1` (racemic) [Example 90, (±)-(5-chloro-7-thien-3-yl-2,3-dihydro-1-benzofuran-2-yl)methylamine]: the Ki worked out at 8 nM.
With `COc1cccc2c1OC(CN)C2` (racemic) [Example 7, (±)-1-(7-methoxy-2,3-dihydro-1-benzofuran-2-yl)methanamine], the inhibition constant Ki turned out to be 160 nM.
On to `COc1cccc(-c2cc(F)c3c(c2)CC(CN)O3)c1` (racemic) [Example 384, (±)-{[7-fluoro-5-(3-methoxyphenyl)-2,3-dihydro-1-benzofuran-2-yl]methyl}amine], for which the Ki is 1260 nM.
Consider `CNCC1Cc2cc(-c3ccccc3OC)cc(F)c2O1` (racemic) [Example 532, (±)-{7-fluoro-5-[2-methoxyphenyl]-2,3-dihydro-1-benzofuran-2-yl}methyl)methylamine], for which the Ki came to 3350 nM.
Same read-out and setting: as for `CNCC1Cc2cc(-c3ccccc3Cl)cc(F)c2O1` (racemic) [Example 529, (±)-{[7-fluoro-5-(2-chlorophenyl)-2,3-dihydro-1-benzofuran-2-yl]methyl}methylamine], the figure is 616 nM.
On to `CNCC1Cc2cc(C(F)(F)F)cc(-c3cccc(F)c3F)c2O1` (racemic) [Example 521, (±)-N-methyl-1-[7-(2,3-difluorophenyl)-5-(trifluoromethyl)-2,3-dihydro-1-benzofuran-2-yl]methanamine], for which the Ki came out at 246 nM.
For `NCC1Cc2cc(F)cc(-c3cccc(F)c3)c2O1` (racemic) [Example 196, (±)-{[5-fluoro-7-(3-fluorophenyl)-2,3-dihydro-1-benzofuran-2-yl]methyl}amine], the inhibition constant Ki was found to be 108 nM.
As for `CNCC1Cc2cc(-c3ccccc3)cc(-c3ccc(Cl)cc3)c2O1` (racemic) [Example 507, (±)-{[7-(4-chlorophenyl)-5-phenyl-2,3-dihydro-1-benzofuran-2-yl]methyl}methylamine], the Ki came out at 2730 nM.
Regarding `CNCC1Cc2cc(C(F)(F)F)cc(-c3cccc(C)c3)c2O1` (racemic) [Example 519, (±)-N-methyl-1-[7-(3-methylphenyl)-5-(trifluoromethyl)-2,3-dihydro-1-benzofuran-2-yl]methanamine], the Ki came out at 488 nM.
With `NCC1Cc2cc(-c3ccccc3F)cc(F)c2O1` (racemic) [Example 377, (±)-{[7-fluoro-5-(2-fluorophenyl)-2,3-dihydro-1-benzofuran-2-yl]methyl}amine], the Ki came to 194 nM.
Turning to `CNCC1Cc2cc(-c3ccccc3F)cc(F)c2O1` (racemic) [Example 530, (±)-{[7-fluoro-5-(2-fluorophenyl)-2,3-dihydro-1-benzofuran-2-yl]methyl}methylamine], the Ki was determined as 915 nM.
Turning to `NCC1Cc2cccc(-c3cc(C(F)(F)F)cc(C(F)(F)F)c3)c2O1` (racemic) [Example 32, (±)-1-{7-[3,5-bis(trifluoromethyl)phenyl]-2,3-dihydro-1-benzofuran-2-yl}methanamine], the Ki is 419 nM.
As for `NCC1Cc2cc(Cl)cc(-c3ccsc3)c2O1` (single isomer, unassigned; (+)) [Example 92, (+)-(5-chloro-7-thien-3-yl-2,3-dihydro-1-benzofuran-2-yl)methylamine], the inhibition constant Ki came to 62 nM.
Same read-out and setting: as for `CNCC1Cc2cc(-c3ccc(F)cc3)cc(F)c2O1` (racemic) [Example 540, (±)-{[7-fluoro-5-(4-fluorophenyl)-2,3-dihydro-1-benzofuran-2-yl]methyl}methylamine], the figure is 486 nM.
As for `NCC1Cc2cc(C(F)(F)F)cc(-c3ccc(F)c(Cl)c3)c2O1` (racemic) [Example 335, (±)-{[7-(3-chloro-4-fluorophenyl)-5-(trifluoromethyl)-2,3-dihydro-1-benzofuran-2-yl]methyl}amine], the inhibition constant (Ki) came to 192 nM.
As to `NCC1Cc2cccc(-c3cccc(C(F)(F)F)c3)c2O1` (single isomer, unassigned; (+)) [Example 136, (+)-1-{7-[3-(trifluoromethyl)phenyl]-2,3-dihydro-1-benzofuran-2-yl}methanamine], the Ki worked out at 124 nM.
Still for that read-out and setting: the result for `Cc1cc2c(c(-c3c(Cl)cccc3Cl)c1)OC(CN)C2` (single isomer, unassigned; (+)) [Example 304, (+)-{[7-(2,6-dichlorophenyl)-5-methyl-2,3-dihydro-1-benzofuran-2-yl]methyl}amine] reads 1.7 nM.

The same assay, now with this note: reference compounds; 95% confidence interval in parentheses; [125I]DOI radioligand; read-out: Ki.
Regarding `CSc1ccc2c(c1)C(N1CCN(C)CC1)Cc1ccccc1S2` (stereo not shown) [Methiothepin, reference compound], the Ki is 4.6 nM.

Still in this assay, the particulars now being: saturation binding with increasing concentrations of [125I] DOI; read-out: dissociation constant, KD.
Turning to `COc1cc(CC(C)N)c(OC)cc1I` (stereo not shown) [[^125I] DOI, reference compound], the Kd turned out to be 0.4 nM.
